Among the data in ChEMBL document CHEMBL4364338, “Probing the side chain tolerance for inhibitors of the CD95/PLCγ1 interaction” (Bioorg Med Chem Lett, 2019) are IC50, Ratio IC50 and inhibition values, retold here.

The source made the active and inactive calls. The rule behind the calls is not given here.

The nature of assay [1]: Inhibition of CD95 (unknown origin)/PLCgamma-1 SH3 domain (unknown origin) protein-protein interaction transfected in HEK293T cells incubated for 1 hr by renilla luciferase based protein-fragment complementation assay. Format: cell-based, Homo sapiens.
Assay [2] in a line: Inhibition of CD95 (unknown origin)/FADD (unknown origin) protein-protein interaction transfected in HEK293T cells incubated for 1 hr by renilla luciferase based protein-fragment complementation assay. The format is cell-based, Homo sapiens.
For assay [3], the species on record is Homo sapiens. The experiment in a line: Selectivity index, ratio of IC50 for CD95 (unknown origin)/FADD (unknown origin) protein-protein interaction transfected in HEK293T cells to IC50 for CD95 (unknown origin)/PLCgamma-1 SH3 domain (unknown origin) protein-protein interaction transfected in HEK293T cells. Format: cell-based.
Assay [4] is filed under the species Homo sapiens. The experiment in a line: Inhibition of CD95 (unknown origin)/PLCgamma-1 SH3 domain Q805A mutant (unknown origin) protein-protein interaction transfected in HEK293T cells incubated for 1 hr by renilla luciferase based protein-fragment complementation assay. Format: cell-based.
The species named for assay [5] is Homo sapiens. As to the kind of experiment: Inhibition of CD95 (unknown origin)/PLCgamma-1 SH3 domain D808A mutant (unknown origin) protein-protein interaction transfected in HEK293T cells incubated for 1 hr by renilla luciferase based protein-fragment complementation assay. The format is cell-based.

`N=C(N)NCCC[C@@H](C(=O)NCCN(C(=O)CCCCCN)[C@@H](Cc1c[nH]cn1)C(=O)NCCN(C(=O)CCc1ccc(N)cc1)[C@@H](CCCCN)C(N)=O)N(CCN)C(=O)CCS`: the IC50 is 856 µM in assay [1] and above 5000 µM in assay [2]. For the same compound, in the assay listed under Homo sapiens [3], the Ratio IC50 was above 10.
On to `N=C(N)NCCC[C@@H](C(=O)NCCN(C(=O)CCCCCN)[C@@H](Cc1c[nH]cn1)C(=O)NCCN(C(=O)CCCCCC(N)=O)[C@@H](CCCCN)C(N)=O)N(CCN)C(=O)CCS`, for which the IC50 in assay [1] and in assay [2] was above 5000 µM in each case.
On to `N=C(N)NCCCCC(=O)N(CCNC(=O)[C@H](Cc1c[nH]cn1)N(CCNC(=O)[C@H](Cc1cccnc1)N(CCN)C(=O)CCS)C(=O)CCCCCN)[C@@H](CCCCN)C(N)=O`, for which the IC50 in assay [1] stood at 907 µM; in assay [2], 4250 µM. The Ratio IC50 in the assay listed under Homo sapiens [3] was 4.
The matching figures for H-TCRKHRK-OH: 35 µM, above 5000 µM and above 100.
For `N=C(N)NCCCCC(=O)N(CCNC(=O)[C@H](Cc1c[nH]cn1)N(CCNC(=O)[C@H](CCCNC(=N)N)N(CCN)C(=O)CCO)C(=O)CCCCCN)[C@@H](CCCCN)C(N)=O`, the IC50 in assay [1] was determined as 79 µM; in assay [2], 3930 µM. Moreover, the Ratio IC50 in the assay filed under Homo sapiens [3] is 50.
The matching figures for `N=C(N)NCCCCC(=O)N(CCNC(=O)[C@H](Cc1c[nH]cn1)N(CCNC(=O)[C@H](Cc1c[nH]c2ccccc12)N(CCN)C(=O)CCS)C(=O)CCCCCN)[C@@H](CCCCN)C(N)=O`: 85 µM, 173 µM and 2.
For `C[C@@H](O)[C@H](N)C(=O)NCCN(C(=O)CCS)[C@@H](CCCNC(=N)N)C(=O)NCCN(C(=O)CCCCCN)[C@@H](Cc1c[nH]cn1)C(=O)NCCN(C(=O)CCCCNC(=N)N)[C@@H](CCCCN)C(N)=O`, the IC50 in assay [1] is 77 µM; in assay [2] it was above 5000 µM. Also, the Ratio IC50 in the assay filed under Homo sapiens [3] is above 100. The inhibition entry in the assay filed under Homo sapiens [4] and in the assay filed under Homo sapiens [5] was “inactive” in each case.
For the compound `N=C(N)NCCC[C@@H](C(=O)NCCN(C(=O)CCCCCN)[C@@H](Cc1c[nH]cn1)C(=O)NCCN(C(=O)CCc1ccc(O)cc1)[C@@H](CCCCN)C(N)=O)N(CCN)C(=O)CCS`, the IC50 was 655 µM in assay [1] and above 5000 µM in assay [2]. In addition, the Ratio IC50 in the assay filed under Homo sapiens [3] was above 10.
`N=C(N)NCCCCC(=O)N(CCNC(=O)[C@H](Cc1c[nH]cn1)N(CCNC(=O)[C@H](CCCNC(=N)N)N(CCN)C(=O)CCS)C(=O)CCCCCN)[C@@H](CCCCN)C(N)=O`: the IC50 in assay [1] was 75 µM; in assay [2], 3800 µM. In the assay listed under Homo sapiens [3], the Ratio IC50 worked out at 50.
The matching figures for `N=C(N)NCCC[C@@H](C(=O)NCCN(C(=O)CCCCCN)[C@@H](Cc1c[nH]cn1)C(=O)NCCN(C(=O)CCc1c[nH]c2ccccc12)[C@@H](CCCCN)C(N)=O)N(CCN)C(=O)CCS`: 343 µM, 2650 µM and 8.
On the same counts, the results for `CCC(=O)N(CCN)[C@@H](CCCNC(=N)N)C(=O)NCCN(C(=O)CCCCCN)[C@@H](Cc1c[nH]cn1)C(=O)NCCN(C(=O)CCCCNC(=N)N)[C@@H](CCCCN)C(N)=O` are 61 µM, above 5000 µM and above 100.
